39 compounds from patent publication US9067922B2, “Chemical compounds” (Pfizer Limited, priority 2013, dated 2015) can be followed below.

Some results are limits rather than exact numbers.

The test addresses URAT-1 transporter (Homo sapiens (Human), UniProt Q96S37). Put plainly: URAT-1 inhibitor activity: [14C]-uric acid uptake in CHO-URAT1(L)GFP#8 (CHO#8) cells, scintillation proximity. It is filed as cell-based. As to conditions: inhibition of [14C]-uric acid (30 nM) uptake into CHO#8 cells; compound 0 to 10 μM; 4 parameter logistic fit. An outline of the steps: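 CHO cells stably expressing human URAT1 long isoform–eGFP fusion, pre-incubated 1 h in chloride-containing buffer pH 7.4, then given 30 nM [14C]-uric acid with compound (0–10 μM, 0.25% DMSO) in chloride-free gluconate buffer pH 7.4. Uptake measured by scintillation proximity on Cytostar plates.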
For orientation: SPA uses beads or plates that emit light when radiolabelled molecules are held near them.

Sequence of URAT-1 transporter (Q96S37 other isoform, or with tags, fused parts or gaps): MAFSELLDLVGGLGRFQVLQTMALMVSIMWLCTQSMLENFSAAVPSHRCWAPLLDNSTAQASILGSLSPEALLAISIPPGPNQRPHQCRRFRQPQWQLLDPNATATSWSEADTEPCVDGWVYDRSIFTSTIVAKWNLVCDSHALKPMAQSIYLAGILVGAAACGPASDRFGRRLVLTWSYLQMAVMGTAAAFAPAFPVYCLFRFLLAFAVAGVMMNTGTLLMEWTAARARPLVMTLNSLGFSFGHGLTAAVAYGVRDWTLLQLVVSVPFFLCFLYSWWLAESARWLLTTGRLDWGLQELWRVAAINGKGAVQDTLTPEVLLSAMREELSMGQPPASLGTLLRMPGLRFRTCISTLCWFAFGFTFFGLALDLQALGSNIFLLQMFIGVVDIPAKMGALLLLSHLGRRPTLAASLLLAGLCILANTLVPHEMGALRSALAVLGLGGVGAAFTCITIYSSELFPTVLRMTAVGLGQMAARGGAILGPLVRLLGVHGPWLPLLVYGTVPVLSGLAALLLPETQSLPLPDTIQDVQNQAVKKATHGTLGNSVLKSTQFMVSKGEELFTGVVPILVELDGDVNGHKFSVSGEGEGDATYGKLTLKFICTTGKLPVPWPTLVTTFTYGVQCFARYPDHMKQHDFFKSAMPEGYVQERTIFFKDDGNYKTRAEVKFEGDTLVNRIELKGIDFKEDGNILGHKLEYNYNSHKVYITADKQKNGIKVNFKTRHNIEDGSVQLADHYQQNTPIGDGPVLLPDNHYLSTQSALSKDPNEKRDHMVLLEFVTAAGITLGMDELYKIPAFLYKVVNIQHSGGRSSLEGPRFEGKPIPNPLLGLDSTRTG

In turn, `CC(C)COc1ccc(Oc2ccc(S(=O)(=O)Nc3ccc(F)cn3)cc2C#N)cn1` [Example 121, 3-cyano-N-(5-fluoropyridin-2-yl)-4-{[6-(2-methylpropoxy)pyridin-3-yl]oxy}benzenesulfonamide] came in with an IC50 of more than 10000 nM.

With `N#Cc1cc(S(=O)(=O)Nc2ccc(F)cn2)ccc1Oc1ccc(Cl)c(Cl)c1` [Example 122, 3-cyano-4-(3,4-dichlorophenoxy)-N-(5-fluoropyridin-2-yl)benzenesulfonamide], inhibition was half-maximal at 99 nM (IC50).

Take `Cc1cccc(Cl)c1Oc1ccc(S(=O)(=O)Nc2ccc(F)cn2)cc1C#N` [Example 123, 4-(2-chloro-6-methylphenoxy)-3-cyano-N-(5-fluoropyridin-2-yl)benzenesulfonamide]: the IC50 came out at 91 nM. For `N#Cc1cc(S(=O)(=O)Nc2ccc(F)cn2)ccc1Oc1c(F)cccc1F` [Example 124, 3-cyano-4-(2,6-difluorophenoxy)-N-(5-fluoropyridin-2-yl)benzenesulfonamide] the value was more than 10000 nM; for `CCOc1ncc(Oc2ccc(S(=O)(=O)Nc3ccc(F)cn3)cc2C#N)cc1Cl` [Example 125, 4-[(5-chloro-6-ethoxypyridin-3-yl)oxy]-3-cyano-N-(5-fluoropyridin-2-yl)benzenesulfonamide], 237 nM.

`CC(C)c1ccc(Oc2ccc(S(=O)(=O)Nc3ccc(F)cn3)cc2C#N)cc1` [Example 126, 3-cyano-N-(5-fluoropyridin-2-yl)-4-[4-(propan-2-yl)phenoxy]benzenesulfonamide] showed an IC50 of more than 10000 nM. As for `CC(C)(C)c1ccc(Oc2ccc(S(=O)(=O)Nc3ccc(F)cn3)cc2C#N)c(Cl)c1` [Example 127, 4-(4-tert-butyl-2-chlorophenoxy)-3-cyano-N-(5-fluoropyridin-2-yl)benzenesulfonamide], the IC50 was more than 10000 nM. For `Cc1ccc(Oc2ccc(S(=O)(=O)Nc3ccc(F)cn3)cc2C#N)c(F)c1F` [Example 128, 3-cyano-4-(2,3-difluoro-4-methylphenoxy)-N-(5-fluoropyridin-2-yl)benzenesulfonamide] the value was more than 10000 nM. Compound `CC(C)(C)c1cccc(Oc2ccc(S(=O)(=O)Nc3ccc(F)cn3)cc2C#N)c1` [Example 129, 4-(3-tert-butylphenoxy)-3-cyano-N-(5-fluoropyridin-2-yl)benzenesulfonamide] came in with an IC50 of more than 10000 nM. Next, `N#Cc1cc(S(=O)(=O)Nc2ccc(F)cn2)ccc1Oc1cc(F)c(F)cc1F` [Example 130, 3-cyano-N-(5-fluoropyridin-2-yl)-4-(2,4,5-trifluorophenoxy)benzenesulfonamide]: 119 nM. `CN(C)c1cccc(Oc2ccc(S(=O)(=O)Nc3ccc(F)cn3)cc2C#N)c1` [Example 131, 3-cyano-4-[3-(dimethylamino)phenoxy]-N-(5-fluoropyridin-2-yl)benzenesulfonamide] registered an IC50 of more than 10000 nM. For `COc1ccc(Oc2ccc(S(=O)(=O)Nc3ccc(F)cn3)cc2C#N)cc1F` [Example 132, 3-cyano-4-(3-fluoro-4-methoxyphenoxy)-N-(5-fluoropyridin-2-yl)benzenesulfonamide] the value was 38 nM; for `Cc1cc(Oc2ccc(S(=O)(=O)Nc3ccc(F)cn3)cc2C#N)c(C(C)C)cc1Cl` [Example 133, 4-[4-chloro-5-methyl-2-(propan-2-yl)phenoxy]-3-cyano-N-(5-fluoropyridin-2-yl)benzenesulfonamide], 793 nM.

In turn, `N#Cc1cc(S(=O)(=O)Nc2ccc(F)cn2)ccc1Oc1c(F)ccc(F)c1F` [Example 134, 3-cyano-N-(5-fluoropyridin-2-yl)-4-(2,3,6-trifluorophenoxy)benzenesulfonamide] returned an IC50 of more than 10000 nM. In the case of `CCOc1cccc(Oc2ccc(S(=O)(=O)Nc3ccc(F)cn3)cc2C#N)c1` [Example 135, 3-cyano-4-(3-ethoxyphenoxy)-N-(5-fluoropyridin-2-yl)benzenesulfonamide], the IC50 is more than 10000 nM.

In turn, `Cc1cc(Cl)c(Oc2ccc(S(=O)(=O)Nc3ccc(F)cn3)cc2C#N)cc1C` [Example 136, 4-(2-chloro-4,5-dimethylphenoxy)-3-cyano-N-(5-fluoropyridin-2-yl)benzenesulfonamide] came in with an IC50 of more than 10000 nM. Consider `CC(C)(C)c1ccc(Oc2ccc(S(=O)(=O)Nc3ccc(F)cn3)cc2C#N)cc1` [Example 137, 4-(4-tert-butylphenoxy)-3-cyano-N-(5-fluoropyridin-2-yl)benzenesulfonamide], for which the IC50 was more than 10000 nM.

Regarding `CCOc1cc(C)ccc1Oc1ccc(S(=O)(=O)Nc2ccc(F)cn2)cc1C#N` [Example 138, 3-cyano-4-(2-ethoxy-4-methylphenoxy)-N-(5-fluoropyridin-2-yl)benzenesulfonamide], the IC50 amounted to 9210 nM. For `Cc1cc(Oc2ccc(S(=O)(=O)Nc3ccc(F)cn3)cc2C#N)ccc1C(C)C` [Example 139, 3-cyano-N-(5-fluoropyridin-2-yl)-4-[3-methyl-4-(propan-2-yl)phenoxy]benzenesulfonamide] the value was more than 10000 nM; for `COc1cc(C)ccc1Oc1ccc(S(=O)(=O)Nc2ccc(F)cn2)cc1C#N` [Example 140, 3-cyano-N-(5-fluoropyridin-2-yl)-4-(2-methoxy-4-methylphenoxy)benzenesulfonamide], more than 10000 nM. Next, `Cc1cc(Oc2ccc(S(=O)(=O)Nc3ccc(F)cn3)cc2C#N)ccc1F` [Example 141, 3-cyano-4-(4-fluoro-3-methylphenoxy)-N-(5-fluoropyridin-2-yl)benzenesulfonamide]: 43 nM. Next, `COc1ccccc1Oc1ccc(S(=O)(=O)Nc2ccc(F)cn2)cc1C#N` [Example 142, 3-cyano-N-(5-fluoropyridin-2-yl)-4-(2-methoxyphenoxy)benzenesulfonamide]: 75 nM. For `COc1cc(Cl)ccc1Oc1ccc(S(=O)(=O)Nc2ccc(F)cn2)cc1C#N` [Example 143, 4-(4-chloro-2-methoxyphenoxy)-3-cyano-N-(5-fluoropyridin-2-yl)benzenesulfonamide], half-maximal inhibition (IC50) was put at 79 nM. For `COc1cc(F)c(F)cc1Oc1ccc(S(=O)(=O)Nc2ccc(F)cn2)cc1C#N` [Example 144, 3-cyano-4-(4,5-difluoro-2-methoxyphenoxy)-N-(5-fluoropyridin-2-yl)benzenesulfonamide] the value was 40 nM; for `Cc1cc(F)ccc1Oc1ccc(S(=O)(=O)Nc2ccc(F)cn2)cc1C#N` [Example 145, 3-cyano-4-(4-fluoro-2-methylphenoxy)-N-(5-fluoropyridin-2-yl)benzenesulfonamide], 96 nM; for `CSc1ccccc1Oc1ccc(S(=O)(=O)Nc2ccc(F)cn2)cc1C#N` [Example 146, 3-cyano-N-(5-fluoropyridin-2-yl)-4-[2-(methylsulfanyl)phenoxy]benzenesulfonamide], 506 nM.

Consider `Cc1c(F)ccc(Oc2ccc(S(=O)(=O)Nc3ccc(F)cn3)cc2C#N)c1Cl` [Example 147, 4-(2-chloro-4-fluoro-3-methylphenoxy)-3-cyano-N-(5-fluoropyridin-2-yl)benzenesulfonamide], for which half-maximal inhibition (IC50) required 187 nM.

For the compound `COc1ccc(Oc2ccc(S(=O)(=O)Nc3ccc(F)cn3)cc2C#N)cc1Cl` [Example 148, 4-(3-chloro-4-methoxyphenoxy)-3-cyano-N-(5-fluoropyridin-2-yl)benzenesulfonamide], it took 53 nM to reach half-maximal inhibition (IC50).

Compound `Cc1cc(Oc2ccc(S(=O)(=O)Nc3ccc(F)cn3)cc2C#N)cc(C)c1Cl` [Example 149, 4-(4-chloro-3,5-dimethylphenoxy)-3-cyano-N-(5-fluoropyridin-2-yl)benzenesulfonamide] registered an IC50 of 95 nM. The compound `Cc1cc(C)cc(Oc2ccc(S(=O)(=O)Nc3ccc(F)cn3)cc2C#N)c1` [Example 150, 3-cyano-4-(3,5-dimethylphenoxy)-N-(5-fluoropyridin-2-yl)benzenesulfonamide] registered an IC50 of 329 nM.

For `CCOc1ccccc1Oc1ccc(S(=O)(=O)Nc2ccc(F)cn2)cc1C#N` [Example 151, 3-cyano-4-(2-ethoxyphenoxy)-N-(5-fluoropyridin-2-yl)benzenesulfonamide], the IC50 was more than 10000 nM. For `Cc1cccc(C)c1Oc1ccc(S(=O)(=O)Nc2ccc(F)cn2)cc1C#N` [Example 152, 3-cyano-4-(2,6-dimethylphenoxy)-N-(5-fluoropyridin-2-yl)benzenesulfonamide] the value was 50 nM; for `CCOc1ccc(Oc2ccc(S(=O)(=O)Nc3ccc(F)cn3)cc2C#N)cc1` [Example 153, 3-cyano-4-(4-ethoxyphenoxy)-N-(5-fluoropyridin-2-yl)benzenesulfonamide], more than 10000 nM. Next, `CCOc1ncccc1Oc1ccc(S(=O)(=O)Nc2ccc(F)cn2)cc1C#N` [Example 154, 3-cyano-4-[(2-ethoxypyridin-3-yl)oxy]-N-(5-fluoropyridin-2-yl)benzenesulfonamide]: more than 10000 nM. For the compound `COc1ccc(C)cc1Oc1ccc(S(=O)(=O)Nc2ccc(F)cn2)cc1C#N` [Example 155, 3-cyano-N-(5-fluoropyridin-2-yl)-4-(2-methoxy-5-methylphenoxy)benzenesulfonamide], the IC50 worked out at 191 nM. `CC(C)Oc1ccc(F)cc1Oc1ccc(S(=O)(=O)Nc2ccc(F)cn2)cc1C#N` [Example 156, 3-cyano-4-[5-fluoro-2-(propan-2-yloxy)phenoxy]-N-(5-fluoropyridin-2-yl)benzenesulfonamide] returned an IC50 of more than 10000 nM. Next, `N#Cc1cc(S(=O)(=O)Nc2ccc(F)cn2)ccc1Oc1ccc(F)c(F)c1F` [Example 157, 3-cyano-N-(5-fluoropyridin-2-yl)-4-(2,3,4-trifluorophenoxy)benzenesulfonamide]: 51 nM; `Cc1ccc(C)c(Oc2ccc(S(=O)(=O)Nc3ccc(F)cn3)cc2C#N)c1` [Example 158, 3-cyano-4-(2,5-dimethylphenoxy)-N-(5-fluoropyridin-2-yl)benzenesulfonamide]: 122 nM; `Cc1cc(Cl)cc(Oc2ccc(S(=O)(=O)Nc3ccc(F)cn3)cc2C#N)c1C` [Example 159, 4-(5-chloro-2,3-dimethylphenoxy)-3-cyano-N-(5-fluoropyridin-2-yl)benzenesulfonamide]: 514 nM.

The IC50 is the midpoint of a concentration-inhibition curve. A higher IC50 goes with weaker potency.
